Source: patent US20250263459A1, “STABILIZED PACAP PEPTIDE” (SENJU PHARMACEUTICAL CO., LTD., priority 2019, published 2025)
Non-standard residues stand in square brackets, D forms with d. Residues, ends and D or L forms follow the SMILES beside them. ξ: configuration not given here. *: point of attachment. Ala(1H-tetrazol-5-yl) = N[C@@H](Cc1nnn[nH]1)C(=O)O; ξAla(tetrazol-5-yl) = NC(Cc1nnn[nH]1)C(=O)O; Isobutyryl = CC(C)C(=O)*; Nle = CCCC[C@H](N)C(=O)O; Butyryl = CCCC(=O)*

How the values were obtained:
PAC1 receptor (PAC1R) = target: T1, PAC1 receptor (PAC1R) (Homo sapiens, UniProt P41586); conditions: background statement; cited from earlier work
T1 sequence (P41586 21-468): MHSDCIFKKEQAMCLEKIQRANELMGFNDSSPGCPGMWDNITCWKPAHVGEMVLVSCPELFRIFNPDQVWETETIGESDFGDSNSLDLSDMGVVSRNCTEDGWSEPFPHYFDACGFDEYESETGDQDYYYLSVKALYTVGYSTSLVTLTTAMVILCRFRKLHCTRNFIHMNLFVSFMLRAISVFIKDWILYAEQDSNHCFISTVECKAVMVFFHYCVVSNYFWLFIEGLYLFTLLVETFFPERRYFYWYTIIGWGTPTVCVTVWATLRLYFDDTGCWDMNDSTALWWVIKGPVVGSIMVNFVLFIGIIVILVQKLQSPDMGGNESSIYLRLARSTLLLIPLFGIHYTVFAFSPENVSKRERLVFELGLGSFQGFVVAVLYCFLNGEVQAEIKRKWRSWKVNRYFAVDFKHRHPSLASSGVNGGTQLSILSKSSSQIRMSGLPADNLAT

[1] = Stability test 1: survival rate of peptide in phosphate buffer (pH 7.0) after storage, HPLC; format: physicochemical; conditions: 100 μM peptide
Summary of the method: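 Peptide solutions at 100 μM in phosphate buffer were stored at 40° C. for 1 week to 2 months depending on peptide. Remaining peptide was measured by reverse-phase HPLC peak area against an unstored standard, with survival rate also corrected for water loss through the container from weighing before and after storage.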

[2] = Stability test 1, sample preparation 5: survival rate of peptide in Tris buffer (pH 7.0) after storage, HPLC; format: physicochemical; conditions: 100 μM peptide; for survival rate after correction for water, 40° C. 4 week / survival rate after correction for water, 40° C. 8 week: Tris buffer pH 7.0, 40° C.; for survival rate after correction for water, 40° C. 4 week: 4 weeks (Table 13); for survival rate after correction for water, 40° C. 8 week: 8 weeks (Table 13); for survival rate after correction for water, 60° C. 1 week / survival rate after correction for water, 60° C. 2 week: Tris buffer pH 7.0, 60° C.; for survival rate after correction for water, 60° C. 1 week: 1 week (Table 13); for survival rate after correction for water, 60° C. 2 week: 2 weeks (Table 13)
Method: The peak area value for the peptide in the chromatogram was calculated, and the survival rate (survival rate before correction for water) was calculated using formula (2). The survival rate after correction for water was also calculated from the survival rate before correction for water using formula (3) to take into account the permeability of the container.
The prepared peptide solutions were incubated for 4 weeks or 8 weeks in a 40° C. thermostatic bath, and for one week or 2 weeks in a thermostatic bath at 60° C., to obtain stored samples.
The following gradient time was used only for peptide 30.

[3] = Stability test 1: survival rate of peptide in phosphate buffer (pH 7.0) after storage, HPLC; format: physicochemical; conditions: 100 μM peptide, 0.1% phosphate buffer pH 7.0, head prints 80° C., 8 weeks (Table 4)
[4] = 100 μM peptide, Tris buffer pH 7.0, 60° C.
Method: The solution was filtered with a Chromatdisk (product of Merck Millipore, Millex-GV, 0.22 μm). The filtrate was diluted to 100 μM with Tris buffer (pH 7.0) and dispensed into a tube (Protein LoBind Tube by Eppendorf Co.). The prepared peptide solutions were incubated for 1 week or 2 weeks in a 60° C. thermostatic bath to obtain stored samples. A simultaneously prepared sample among the peptide solutions that was not stored was used as a standard sample (initial sample). The standard sample and the stored samples were stored at −30° C. until sample analysis.
• Column: XSelect CSH C18 by Waters Co., 5 μm, 4.6×250 mm • Guard column: XSelect CSH C18 by Waters Co., 5 μm, 4.6×20 mm Guard Cartridge • Detection wavelength: 220 nm • Mobile phase A: 0.1% formic acid aqueous solution • Mobile phase B: 0.1% acetonitrile formate solution • Measuring time: 20 minutes • Measuring sample injection rate: 50 μL • Flow rate: 1.0 mL/min • Column temperature: 40° C. • Sample cooler: 25° C. • Mobile phase delivery: The mixing ratio of mobile phase A and mobile phase B was varied as shown in Table 14 for linear concentration gradient control.

VPAC1 receptor = target: T2, VPAC1 receptor (Homo sapiens, UniProt P32241); assay: cAMP assay in CHO-K1 cells, VPAC1 receptor high-expressing cell line; format: cell-based; conditions: 30 minutes incubation
T2 construct: host or cells: CHO-K1
T2 sequence (P32241 31-457): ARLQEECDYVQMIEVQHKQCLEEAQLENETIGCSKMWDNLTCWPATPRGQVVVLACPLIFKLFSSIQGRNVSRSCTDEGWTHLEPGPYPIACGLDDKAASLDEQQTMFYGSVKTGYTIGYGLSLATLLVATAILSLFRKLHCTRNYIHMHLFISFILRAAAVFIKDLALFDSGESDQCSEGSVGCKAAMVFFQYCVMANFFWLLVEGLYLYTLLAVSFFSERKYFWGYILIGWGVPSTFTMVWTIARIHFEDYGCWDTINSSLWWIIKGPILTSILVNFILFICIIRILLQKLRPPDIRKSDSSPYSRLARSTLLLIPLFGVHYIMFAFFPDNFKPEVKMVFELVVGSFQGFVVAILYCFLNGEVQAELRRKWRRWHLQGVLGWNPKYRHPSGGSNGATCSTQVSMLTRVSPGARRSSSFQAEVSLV
Method: The cells were cultured for 18 to 24 hours at 37° C. in a 5% CO2 incubator, adhering the cells to the plate. […] A 5-fold dilution series was then prepared with the same Cell assay buffer and used in an assay. The cAMP assay was carried out using a Hit Hunter cAMP Assay for Biologics kit (product of DiscoveRx, Cat. No. 90-0075LM25), according to the included kit instructions. […] Next, the culture medium was removed from the CHO-K1 cell culture plate, washing was performed with PBS, and the peptide-cAMP antibody liquid mixtures were added to the cells and incubated for 30 minutes under a 5% CO2 atmosphere at 37° C. A working detection solution was then added and the culture plate was shielded from light with aluminum foil and incubated at 25° C. for 1 hour. After incubation, Solution A was added and the culture plate was shielded from light with aluminum foil and then incubated at 25° C. for 3 hours. […] The obtained value for the Relative Luminescence Unit (RLU) was analyzed with GraphPad Prism Ver 6.05 (product of Graph Pad) and the EC50 value was calculated for each peptide.

[5] = 0.1% phosphate buffer pH 7.0, 40° C., 4 weeks (Table 4)
[6] = phosphate buffer pH 7.0, 40° C., 4 weeks (Table 8)

Compound	survival rate after correction for water, 40° C. 4 week [1, 5] [%]	survival rate after correction for water, 40° C. 4 week [1, 6] [%]	survival rate after correction for water, 40° C. 4 week [2] [%]	survival rate after correction for water, 40° C. 8 week [2] [%]	survival rate after correction for water, 60° C. 1 week [2] [%]	survival rate after correction for water, 60° C. 2 week [2] [%]	survival rate after correction for water, 80° C. 8 week [3] [%]	EC50 (VPAC1 receptor) [nM]	also measured
Pituitary adenylate cyclase-activating polypeptide [PACAP]	–	–	–	–	–	–	–	–	affinity of PAC1R for PACAP relative to affinity of PAC1R for VIP (PAC1 receptor (PAC1R)): more than 1000 times
CC[C@H](C)[C@H](NC(=O)CNC(=O)[C@H](CC(=O)O)NC(=O)[C@H](CO)NC(=O)[C@@H](N)Cc1c[nH]cn1)C(=O)N[C@@H](Cc1ccccc1)C(=O)N[C@H](C(=O)N[C@@H](CC(=O)O)C(=O)N[C@@H](CO)C(=O)N[C@@H](Cc1ccc(O)cc1)C(=O)N[C@@H](CO)C(=O)N[C@@H](CCCNC(=N)N)C(=O)N[C@@H](Cc1ccc(O)cc1)C(=O)N[C@@H](CCCNC(=N)N)C(=O)N[C@@H](CCCCN)C(=O)N[C@@H](CCC(N)=O)C(=O)N[C@@H](CCSC)C(=O)N[C@@H](C)C(=O)N[C@H](C(=O)N[C@@H](CCCCN)C(=O)N[C@@H](CCCCN)C(=O)N[C@@H](Cc1ccc(O)cc1)C(=O)N[C@@H](CC(C)C)C(=O)N[C@@H](C)C(=O)N[C@@H](C)C(=O)N[C@H](C(=O)N[C@@H](CC(C)C)C(N)=O)C(C)C)C(C)C)[C@@H](C)O [Reference Example 1, reference compound]	37.4	23.9	37.9	15.6	26.4	14.6	21.3	–	survival rate after correction for water, 40° C. 1 week ([1]; phosphate buffer pH 7.0, 40° C., 1 week (Table 10)): 74.9%; survival rate after correction for water, 40° C. 2 week ([1]; phosphate buffer pH 7.0, 40° C., 2 weeks (Table 6)): 64.3%; survival rate after correction for water, 40° C. 4 week ([1]; phosphate buffer pH 7.0, 40° C., 4 weeks (Table 10)): 33.0%; survival rate after correction for water, 40° C. 8 week ([1]; phosphate buffer pH 7.0, 40° C., 8 weeks (Table 6)): 23.7%; survival rate after correction for water, 60° C. 1 week preservation ([4]; 1 week): 26.6%; survival rate after correction for water, 60° C. 2 weeks preservation ([4]; 2 weeks): 15.8%
CC[C@H](C)[C@H](NC(=O)CNC(=O)[C@H](Cc1nnn[nH]1)NC(=O)[C@H](CO)NC(=O)[C@H](Cc1c[nH]cn1)NC(C)=O)C(=O)N[C@@H](Cc1ccccc1)C(=O)N[C@@H](C)C(=O)N[C@@H](Cc1nnn[nH]1)C(=O)N[C@@H](C)C(=O)N[C@@H](Cc1ccc(O)cc1)C(=O)N[C@@H](CO)C(=O)N[C@@H](CCCNC(=N)N)C(=O)N[C@@H](Cc1ccc(O)cc1)C(=O)N[C@@H](CCCNC(=N)N)C(=O)N[C@@H](CCCCN)C(=O)N[C@@H](CCC(N)=O)C(=O)N[C@@H](CC(C)C)C(=O)N[C@@H](C)C(=O)N[C@H](C(=O)N[C@@H](CCCCN)C(=O)N[C@@H](CCCCN)C(=O)N[C@@H](Cc1ccc(O)cc1)C(=O)N[C@@H](CC(C)C)C(=O)N[C@@H](C)C(=O)N[C@@H](C)C(=O)N[C@H](C(=O)N[C@@H](CC(C)C)C(N)=O)C(C)C)C(C)C [Peptide 27, HSTzGI FATzAY SRYRK QLAVK KYLAA VL] (Ac-HS[Ala(1H-tetrazol-5-yl)]GIFA[Ala(1H-tetrazol-5-yl)]AYSRYRKQLAVKKYLAAVL-NH2)	–	–	90.9	84.3	97.3	95.5	–	0.111	–
CC[C@H](C)[C@H](NC(=O)CNC(=O)C(Cc1nnn[nH]1)NC(=O)[C@H](CO)NC(=O)[C@@H](N)Cc1c[nH]cn1)C(=O)N[C@@H](Cc1ccccc1)C(=O)N[C@@H](C)C(=O)NC(Cc1nnn[nH]1)C(=O)N[C@@H](C)C(=O)N[C@@H](Cc1ccc(O)cc1)C(=O)N[C@@H](C)C(=O)N[C@@H](CCCNC(=N)N)C(=O)N[C@@H](Cc1ccc(O)cc1)C(=O)N[C@@H](CCCNC(=N)N)C(=O)N[C@@H](CCCCN)C(=O)N[C@@H](CCC(N)=O)C(=O)N[C@@H](CCSC)C(=O)N[C@@H](C)C(=O)N[C@H](C(=O)N[C@@H](CCCCN)C(=O)N[C@@H](CCCCN)C(=O)N[C@@H](Cc1ccc(O)cc1)C(=O)N[C@@H](CC(C)C)C(=O)N[C@@H](C)C(=O)N[C@@H](C)C(=O)N[C@H](C(=O)N[C@@H](CC(C)C)C(N)=O)C(C)C)C(C)C (some centres unmarked) [Peptide 3, HSTzGI FATzAY ARYRK QMAVK KYLAA VL] (H-HS[ξAla(tetrazol-5-yl)]GIFA[ξAla(tetrazol-5-yl)]AYARYRKQMAVKKYLAAVL-NH2)	92.9	–	–	–	–	–	85.4	0.111	–
CCCC[C@H](NC(=O)[C@H](CCC(N)=O)NC(=O)[C@H](CCCCN)NC(=O)[C@H](CCCNC(=N)N)NC(=O)[C@H](Cc1ccc(O)cc1)NC(=O)[C@H](CCCNC(=N)N)NC(=O)[C@H](CO)NC(=O)[C@H](Cc1ccc(O)cc1)NC(=O)[C@H](CO)NC(=O)[C@H](Cc1nnn[nH]1)NC(=O)[C@@H](NC(=O)[C@H](Cc1ccccc1)NC(=O)[C@@H](NC(=O)CNC(=O)[C@H](Cc1nnn[nH]1)NC(=O)[C@H](CO)NC(=O)[C@H](Cc1c[nH]cn1)NC(=O)CCC)[C@@H](C)CC)[C@@H](C)O)C(=O)N[C@@H](C)C(=O)N[C@H](C(=O)N[C@@H](CCCCN)C(=O)N[C@@H](CCCCN)C(=O)N[C@@H](Cc1ccc(O)cc1)C(=O)N[C@@H](CC(C)C)C(=O)N[C@@H](C)C(=O)N[C@@H](C)C(=O)N[C@H](C(=O)N[C@@H](CC(C)C)C(N)=O)C(C)C)C(C)C [Peptide 18] (Butyryl-HS[Ala(1H-tetrazol-5-yl)]GIFT[Ala(1H-tetrazol-5-yl)]SYSRYRKQ[Nle]AVKKYLAAVL-NH2)	–	65.1	–	–	–	–	–	0.069	–
CCCC[C@H](NC(=O)[C@H](CCC(N)=O)NC(=O)[C@H](CCCCN)NC(=O)[C@H](CCCNC(=N)N)NC(=O)[C@H](Cc1ccc(O)cc1)NC(=O)[C@H](CCCNC(=N)N)NC(=O)[C@H](CO)NC(=O)[C@H](Cc1ccc(O)cc1)NC(=O)[C@H](CO)NC(=O)[C@H](Cc1nnn[nH]1)NC(=O)[C@@H](NC(=O)[C@H](Cc1ccccc1)NC(=O)[C@@H](NC(=O)CNC(=O)[C@H](Cc1nnn[nH]1)NC(=O)[C@H](CO)NC(=O)[C@H](Cc1c[nH]cn1)NC(=O)C(C)C)[C@@H](C)CC)[C@@H](C)O)C(=O)N[C@@H](C)C(=O)N[C@H](C(=O)N[C@@H](CCCCN)C(=O)N[C@@H](CCCCN)C(=O)N[C@@H](Cc1ccc(O)cc1)C(=O)N[C@@H](CC(C)C)C(=O)N[C@@H](C)C(=O)N[C@@H](C)C(=O)N[C@H](C(=O)N[C@@H](CC(C)C)C(N)=O)C(C)C)C(C)C [Peptide 19, HSTzGI FTTzSY SRYRK QNIAVK KYLAA VL] (Isobutyryl-HS[Ala(1H-tetrazol-5-yl)]GIFT[Ala(1H-tetrazol-5-yl)]SYSRYRKQ[Nle]AVKKYLAAVL-NH2)	–	68.7	–	–	–	–	–	0.069	–
